Oligonucleotides are written 5' to 3', each unit as a sugar letter and its base; * is a phosphorothioate linkage, no mark a phosphodiester; rarer units and linkages stand in square brackets, end groups in braces. Plain capitals give the bases only. e = 2'-O-(2-methoxyethyl) (MOE); [5mC] = 5-methylcytosine; d = 2'-deoxy (DNA)
What was measured:
Mouse STAT3 protein = assay: STAT3 protein levels in BCL1 cells by Western blot, dose response; type: cell-based; settings: compared with mismatch control
Protocol: ISIS 17152 (SEQ ID. NO. 99) was chosen for further study. The effect of this oligonucleotide on protein levels was determined by Western blot. ISIS 23177 (SEQ ID NO. 106), a 3 base mismatch, was used as a control. BCL1 cells were grown, treated and processed as described in Example 2.
Nuclear extracts from primary B cells and B lymphoma cell lines were prepared as described in Karras, J. G., et al. (J. Exp. Med., 1997, 185, 1035-1042).
Western blotting was performed as described in Karras, J. G. et al. (J. Immunol., 1996, 157, 2299). STAT1 and STAT3 antibodies were obtained from UBI (Lake Placid, N.Y.).

BCL1 cells = assay: BCL1 cell proliferation, [3H]-thymidine incorporation; type: cell-based, mouse; settings: summary of Table 6
Protocol: The effect of ISIS 17152 (SEQ ID NO. 99) on BCL1 proliferation was determined. BCL1 cells contain constitutively active STAT3 which is thought to be responsible for their proliferation. BCL1 cells were grown, treated and processed as described in Example 2.
1×10^5 BCL1 cells were incubated in 96-well plates in […] complete RPMI following electroporation. Cultures were pulsed with […] of [^3H]-thymidine for the last 8 hours of culture and cells were harvested and analyzed for thymidine incorporation as described in Francis, D. A. et al. (Int. Immunol., 1995, 7, 151-161) 48 hours after electroporation.

[1] = system: IgM secretion by BCL1 cells; assay: BCL1 IgM secretion, ELISA; type: cell-based, mouse; settings: compared with mismatch control
Protocol: The effect of ISIS 17152 (SEQ ID. NO. 99) on IgM secretion levels was determined. STAT3 has been implicated in regulation of IgM expression (Faris, M., et al., Immunology, 1997, 90, 350-357). BCL1 cells were grown, treated and processed as described in Example 2.
1×10^6 BCL1 cells were incubated in 12-well plates in 2 mL complete RPMI following electroporation. Supernatant was replaced at 24 hour post electroporation with fresh medium. 48 hours later, supernatants were harvested, centrifuged to remove cells, and assayed for IgM content using the OPT-EIA™ ELISA kit (Pharmingen, San Diego, Calif.) and capture and detecting antibodies for mouse IgM (Southern Biotechnology, Birmingham, Ala.).

RANTES mRNA = assay: Induction of chemokines in BCL1 cells, RNase protection assay: RANTES; type: cell-based, mouse; settings: statement covers all three chemokines
Protocol: The effect of ISIS 17152 (SEQ ID. NO. 99) on chemokine levels was determined. BCL1 cells were grown, treated and processed as described in Example 2. Chemokine gene expression was induced in BCL1 cells by addition of […] of a CpG-containing oligonucleotide to the media 16 hours following antisense oligonucleotide electroporation. CpG-containing oligonucleotides are immune-stimulatory (Krieg, A. M., et al., Nature, 1995, 374, 546-549). The levels of chemokines were measured eight hours later using RNase protection assay as described in Example 2 with a mouse chemokine template set, Mck-5 (Pharmingen, San Diego, Calif.).

Mouse B16 melanoma cells = assay: Cell number of B16 melanoma cells after antisense treatment; type: cell-based; settings: 24 hours after transfection
Protocol: Mouse B16 melanoma cells were grown in RPMI 1640 (Life Technologies, Inc., Grand Island, N.Y.) medium supplemented with 10% fetal bovine serum, 2 mM L-glutamine, 1 mM sodium pyruvate, 1% MEM nonessential amino acids and 100 IU/ml penicillin/streptomycin.
(§1) Cells were treated with ISIS 17152, targeted to mouse STAT3, or the 3-base mismatch control, ISIS 28084 ([…]; SEQ ID NO: 151). Cells were transfected with oligonucleotide using LipofectAMINE PLUSJ reagent (GibcoBRL). Oligonucleotide was pre-complexed with LipofectAMINE PLUSJ by adding the oligonucleotide to 100 μl serum-free RPMI 1640 medium, then 6 μl LipofectAMINE PLUSJ reagent was added, the sample was mixed well and incubated for 15 minutes at room temperature. An additional 4 μl of LipofectAMINE PLUSJ reagent was diluted to 100 μl in serum-free RPMI. This diluted LipofectAMINE PLUSJ was mixed with the pre-complexed oligonucleotide/LipofectAMINE PLUSJ mixture and incubated for 15 minutes at room temperature. 800 μl of serum-free RPMI 1640 was added, and the resulting oligonucleotide-LipofectAMINE PLUSJ-medium mixture (approximately 1 ml) was added to cells in a 6-well plate. After 3 hours incubation, 1 ml of RPMI 1640 supplemened with 20% fetal bovine serum was added. Oligonucleotide concentrations were 200 nM or 300 nM.
24 hours after transfection, cells were counted to determine the effect of antisense treatment on cell death. Cells were harvested at 24 hours post transfection for western blot analysis and at 48 hours post-transfection for Annexin-V staining for apoptosis.

B16 cells = assay: Apoptosis in B16 cells, Annexin V-PE staining and flow cytometry; type: cell-based, mouse
Protocol: as §1
24 hours after transfection, cells were counted to determine the effect of antisense treatment on cell death. […]
Apoptosis in B16 cells was measured by staining with Annexin V-PE (Clontech) and flow cytometry analysis 48 hours after antisense treatment. […]

STAT3 protein = STAT3 protein in B16 cells, Western blot; type: cell-based, mouse; settings: 200 nM or 300 nM, 24 hours after treatment
Protocol: as §1
24 hours after transfection, cells were counted to determine the effect of antisense treatment on cell death. Cells were harvested at 24 hours post transfection for western blot analysis and at 48 hours post-transfection for Annexin-V staining for apoptosis. […]

Human STAT3 mRNA = assay: Inhibition of human STAT3 mRNA expression in U266 cells, Northern blot; type: cell-based; settings: following electroporation, Northern blotting
Protocol: U266 human myeloma cell lines (originally obtained from American Type Culture Collection) were maintained in RPMI 1640 medium supplemented with 10% fetal calf serum. Cells (15×10^6 cells in PBS) were transfected with oligonucleotides at 200V with a single 6-millisecond pulse using a BTX Electro Square Porator T820 (Genetronics, San Diego Calif.). The cells were incubated for 24 hours before RNA extraction.
Total cellular RNA was isolated using the Rneasy kit (Qiagen, Santa Clarita, Calif.). Northern blotting was perfomed on 15 μg of RNA using a cDNA probe prepared from MB-MDA 468 RNA by standard RT-PCR followed by a nested primer reaction. Signals were quantitated using a Molecular Dynamics Phosphorimager.
In order to examine the importance of STAT3 expression in multiple myeloma cells, a series of 20mer STAT3 antisense oligonucleotides were designed and synthesized, using phosphorothioate chemistry and incorporating 2′-O-methoxyethyl modifications to improve hybridization affinity and nuclease resistance.

[2] = system: LNCaP human prostatic carcinoma xenograft; assay: LNCaP mouse model of prostate carcinoma: tumor volume and serum PSA in castrated nude mice; type: in vivo; settings: 10 mg/kg intraperitoneally, up to 10 weeks post-castration
Protocol: The LNCaP murine model of human prostate carcinoma is described in Kiyama et al., Cancer Res. 63:3575-3584, 2003, incorporated herein by reference. Briefly, LNCaP human prostatic carcinoma cells were cultured and maintained in RPMI medium (Life Technologies, Inc., Carlsbad, Calif.) supplemented with 5% heat inactivated fetal calf serum (FCS). About 1×10^6 LNCaP cells were inoculated subcutaneously with 0.1 ml of Matrigel (Becton Dickinson Labware, Franklin Lakes, N.J.) in the flank region of 6-8 week old male athymic nude mice (Harlan Sprague Dawley, Inc., Indianapolis, Ind.) via a 27 gauge needle under methoxyfluorane anesthesia. Mice bearing tumors between 300 and 500 mm^3 in volume were castrated via a scrotal approach and randomly assigned to treatment with 10 mg/kg of either ISIS 113176 human antisense or ISIS 129987 human mismatch control STAT 3 oligonucleotide intraperitoneally five times per week for the first week followed by three times per week thereafter. Treatment commenced beginning one day after castration. […] Tumor volumes were calculated by the formula L×W×H×0.5236 (Gleave et al., Cancer Res. 51:1598-1605, 1992). Blood samples were obtained from tail vein incisions of mice, and serum PSA levels were determined by an enzymatic immunoassay kit with a lower limit of sensitivity of 0.2 μg/liter (Abbott IMX, Montreal, Quebec, Canada) according to the manufacturer's protocol.

LGL leukemic cells = assay: Sensitization of LGL cells to Fas-mediated apoptosis, flow cytometry; type: cell-based, human
Protocol: LGL leukemic cells were obtained from patients who met the clinical criteria of T cell (CD3+) LGL leukemia with increased LGL counts and clonal TCR gene rearrangements. All patients had chronic disease not requiring treatment at the time of analysis. Purified leukemic LGL cells were placed in 24-well plates at a concentration of 2×10^6/0.5 mL of complete medium (RPMI-1640 medium supplemented with 10% fetal bovine serum, 2 mM L-glutamine, 10 U/mL penicillin, and 100 ug/mL streptomycin, all from Gibco Life Technologies, Gaithersburg, Md.). Cells were incubated with either ISIS 17148 antisense oligonucleotide (SEQ ID NO: 95) or the control, ISIS 16094 (SEQ ID NO: 152). Antisense oligonucleotide delivery to LGL leukemic cells was by passive uptake and no transfection reagents were included in the reaction.
Extracts of LGL cells treated with antisense oligonucleotides (1 uM dosing for ISIS 17148 and the control) from three patients were obtained and assayed for STAT3 protein levels by Western blot. Sensitization of the LGL cells to Fas-mediated apoptosis was also measured by flow cytometry in cells treated with antisense oligonucleotides at doses of 1, 2 and 5 uM. By Western analysis, a reduction in STAT3 protein levels ranged from 25 to 45%. […] Levels of apoptosis in control oligonucleotide treated cells remained at 6% at all doses.

[3] = system: U266 multiple myeloma cells; assay: Apoptosis of U266 cells, Annexin-V staining, flow cytometry; type: cell-based, human
Protocol: U266 cells (ATCC, Bethesda, Md.) were cultured in RPMI 1640 medium supplemented with 10% heat-inactivated fetal bovine serum (Sigma Chemical Company, St. Louis, Mo.), 10 mM Hepes, pH 7.2, […] 2-ME, 2mM L-glutamine, 100 U/ml penicillin, and 100 µg/ml streptomycin (Gibco, Grand Island, N.Y.).
2′-O-methoxyethylribose modified phosphorothioate oligonucleotides were synthesized on an automated DNA synthesizer (Applied Biosystems model 380B), as described above. Chimeric oligonucleotides were employed in these studies; the chimeric oligonucleotides contain 2′-O-methoxyethyl modified residues flanking a 2′-deoxynucleotide/phosphorothioate region (gap) that supports RNase H activation. Oligonucleotides were analyzed by capillary gel electrophoresis and judged to be at least 85% full-length material. U266 (1×10^7 cells in PBS) were transfected with oligonucleotides by electroporation, at 175V, 1000 μF using a BTX Electro Cell Manipulator 600 (Genetronics, San Diego, Calif.).
10×10^6 U266 cells were electroporated with oligonucleotides and cultured for 48 hours before analysis of phosphatidylserine expression was performed as a measure of apoptosis using the Annexin-V staining kit (Clontech, Palo Alto, Calif.) according to the manufacturer's instructions. […] The samples were then diluted with FacsFlow buffer and analyzed on a Becton Dickinson FACScan (Mountain View, Calif.).

Row | Sequence | reducing STAT3 protein levels (in words) (Mouse STAT3 protein) | reduction of BCL1 cell proliferation (BCL1 cells) | reducing IgM secretion (in words) [1] | expression of the chemokines, RANTES, MIP-1 and MIP-1 (in words) (RANTES mRNA) | cell number (Mouse B16 melanoma cells; 200 nM, Expt 1) | cell number (Mouse B16 melanoma cells; 200 nM, Expt 2) | cell number (Mouse B16 melanoma cells; 200 nM, Expt 3) | cell number (Mouse B16 melanoma cells; 300 nM, Expt 2) | cell number (Mouse B16 melanoma cells; 300 nM, Expt 3) | cells staining positive for Annexin-V (B16 cells; 48 hours after antisense treatment) [%] | increase in apoptotic cells (B16 cells; versus mock and control oligonucleotide) | STAT3 protein production (in words) (STAT3 protein) | STAT3 mRNA expression in U266 cells (in words) (Human STAT3 mRNA) | induction of serum PSA levels [2] | tumor growth [2] | percent specific apoptosis (LGL leukemic cells; 1 uM, untreated cells 5%) [%] | percent specific apoptosis (LGL leukemic cells; 2 uM) [%] | percent specific apoptosis (LGL leukemic cells; 5 uM) [%] | annexin V staining (in words) [3]
1 | AAAAAGTGCCCAGATTGCCC (antisense eA*eA*eA*eA*eA*dG*dT*dG*dC*dC*dC*dA*dG*dA*dT*eT*eG*e[5mC]*e[5mC]*e[5mC]) [ISIS 17152] | significantly better at reducing STAT3 protein levels than the mismatch control | approximately 50% | significantly better at reducing IgM secretion than the mismatch control | able to induce the expression of the chemokines | 3.8 × 10^5 | 6.8 × 10^5 | 1.8 × 10^5 | 3.5 × 10^5 | 2.2 × 10^5 | 29.84 | nearly threefold increase | significantly reduced |  |  |  |  |  |  | 
2 | GCTCCAGCATCTGCTGCTTC (antisense eG*e[5mC]*eT*e[5mC]*e[5mC]*dA*dG*d[5mC]*dA*dT*d[5mC]*dT*dG*d[5mC]*dT*eG*e[5mC]*eT*eT*e[5mC]) [ISIS 113176] |  |  |  |  |  |  |  |  |  |  |  |  | potently inhibit STAT3 mRNA expression | suppressed | suppressed |  |  |  | 
3 | ACTCAAACTGCCCTCCTGCT (listed as DNA, chemistry not fully specified) [ISIS 17148] |  |  |  |  |  |  |  |  |  |  |  |  | potently inhibit STAT3 mRNA expression |  |  | 6 | 17 | 24 | increased levels of annexin V staining
